Results reported in publication PMC10593844, “Structure-function analyses reveal key molecular determinants of HIV-1 CRF01_AE resistance to the entry inhibitor temsavir” (Nature Communications, 2023).
Several values for one entry are separate records, joined by “and”; a condition that tells them apart may be missing. Equal entries are not always repeated. Where two headings read alike, the source gives them in different places.

How the values were obtained:
[1] = system: HIV-1 pseudovirus bearing EnvJR-FL S375M; test: organism not typed; assay type: cell-based
[2] = system: HIV-1 pseudovirus bearing clade B YU2 Env S375T; test: organism not typed; assay type: cell-based; conditions: for Relative infectivity (%): YU2 S375T
[3] = system: HIV-1 pseudovirus bearing clade B YU2 Env S375H; test: organism not typed; assay type: cell-based; conditions: for Relative infectivity (%): YU2 S375H
[4] = system: CRF01_AE 92TH023 Env WT on HEK293T cells; assay type: binding; conditions: 92TH023 WT; temsavir 10 µM; listed as TMR
[5] = system: HIV-1 pseudovirus bearing clade B YU2 Env LM+ST; test: organism not typed; assay type: cell-based; conditions: for Relative infectivity (%): YU2 LM+ST
[6] = system: HIV-1 pseudovirus bearing CRF01_AE 92TH023 Env WT; test: organism not typed; assay type: cell-based; conditions: for Relative infectivity (%): 92TH023 WT
[7] = system: HIV-1 pseudovirus bearing clade B YU2 Env H105Q/I108V; assay type: cell-based
[8] = system: CRF01_AE CM244 Env LM on HEK293T cells; assay type: binding; conditions: temsavir 10 µM, listed as TMR
[9] = system: HIV-1 pseudovirus bearing EnvJR-FL S375N; test: organism not typed; assay type: cell-based; conditions: for Relative infectivity (%): JRFL S375N
[10] = system: HIV-1 pseudovirus bearing clade B YU2 Env LM+SH; test: organism not typed; assay type: cell-based; conditions: for Relative infectivity (%): YU2 LM+SH
[11] = system: HIV-1 pseudovirus bearing EnvJR-FL S375H; test: organism not typed; assay type: cell-based; conditions: for Relative infectivity (%): JRFL S375H
[12] = system: HIV-1 pseudovirus bearing CRF01_AE CM244 Env LM; test: organism not typed; assay type: cell-based; conditions: for Relative infectivity (%): CM244 LM
[13] = system: HIV-1 pseudovirus bearing CRF01_AE CM244 Env LMHS; test: organism not typed; assay type: cell-based; conditions: for Relative infectivity (%): CM244 LMHS
[14] = molecular target: T1, clade B YU2 Env S375H on HEK293T cells (Human immunodeficiency virus type 1 group M subtype B, UniProt P35961, S370H); assay type: binding; conditions: temsavir 10 µM, listed as TMR
T1 construct: expressed in transfected cells; host or cells: HEK293T (pSVIIIenv co-transfected with a Tat expressor)

[15] = system: HIV-1 pseudovirus bearing EnvJR-FL S375W; test: organism not typed; assay type: cell-based; conditions: for Relative infectivity (%): JRFL S375W
[16] = system: HIV-1 pseudovirus bearing CRF01_AE 92TH023 Env LMHT; test: organism not typed; assay type: cell-based; conditions: for Relative infectivity (%): 92TH023 LMHT
[17] = system: HIV-1JR-FL Env S375M on HEK293T cells; assay type: binding; conditions: JRFL S375M; temsavir 10 µM; listed as TMR
[18] = system: HIV-1JR-FL Env S375F on HEK293T cells; assay type: binding; conditions: JRFL S375F; temsavir 10 µM; listed as TMR
[19] = system: clade B YU2 Env LMSH on HEK293T cells; assay type: binding; conditions: temsavir 10 µM, listed as TMR
[20] = molecular target: T2, clade B YU2 Env WT on HEK293T cells (Human immunodeficiency virus type 1 group M subtype B, UniProt P35961); assay type: binding; conditions: temsavir 10 µM, listed as TMR
T2 construct: expressed in transfected cells; host or cells: HEK293T (pSVIIIenv co-transfected with a Tat expressor)

[21] = system: HIV-1JR-FL Env S375N on HEK293T cells; assay type: binding; conditions: JRFL S375N; temsavir 10 µM; listed as TMR
[22] = system: CRF01_AE 92TH023 Env LMHS on HEK293T cells; assay type: binding; conditions: 92TH023 LMHS; temsavir 10 µM; listed as TMR
[23] = system: CRF01_AE CM244 Env WT on HEK293T cells; assay type: binding; conditions: temsavir 10 µM, listed as TMR
HIV-1 Env with Ile475 = system: HIV-1 Env with Ile475; parameters: method as in PMID 28825711; conditions: Ile475 substitution; cited from earlier work
[24] = system: clade B YU2 Env LMST on HEK293T cells; assay type: binding; conditions: temsavir 10 µM, listed as TMR

COc1cnc(-n2cnc(C)n2)c2[nH]cc(C(=O)C(=O)N3CCN(C(=O)c4ccccc4)CC3)c12 [Temsavir, temsavir]
IC50 ([1]; Cf2Th-CD4/CCR5): 64.7 nM | Relative infectivity (%) ([1]; JRFL S375M, Temsavir 0.1 nM): 98.6007% and 143.038% and 92.762% | IC50 ([2]; Cf2Th-CD4/CCR5): 0.73 nM | Relative infectivity (%) ([2]; Temsavir 1 nM): 32.779% and 22.5844% and 35.0676% | Relative infectivity (%) ([2]; Temsavir 5 nM): 2.479% and 1.401% and 1.77% | Relative infectivity (%) ([2]; Temsavir 10 nM): 0.4727% and 0.2789% and 0.1619% | Relative infectivity (%) ([2]; Temsavir 50 nM): 0.1346% and 0.1101% and 0.1511% | Relative infectivity (%) ([2]; Temsavir 100 nM): 0.1098% and 0.1253% and 0.1727% | IC50 ([3]; Cf2Th-CD4/CCR5): 22.9 nM | Relative infectivity (%) ([3]; Temsavir 1 nM): 63.2919% and 87.0597% and 84.5852% | Relative infectivity (%) ([3]; Temsavir 5 nM): 57.7086% and 71.798% and 64.2482% | Relative infectivity (%) ([3]; Temsavir 10 nM): 66.6494% and 65.3275% and 50.1024% | Relative infectivity (%) ([3]; Temsavir 50 nM): 26.1516% and 30.7973% and 25.917% | Relative infectivity (%) ([3]; Temsavir 100 nM): 13.7111% and 12.275% and 13.4865% | sCD4 binding (+TMR) - Fold over DMSO [4]: 0.9655 and 0.9282 and 0.9905 | IC50 ([5]; Cf2Th-CD4/CCR5): 32.1 nM | Relative infectivity (%) ([5]; Temsavir 1 nM): 95.2565% and 91.9655% and 79.6279% | Relative infectivity (%) ([5]; Temsavir 5 nM): 83.0048% and 82.0339% and 77.855% | Relative infectivity (%) ([5]; Temsavir 10 nM): 75.1553% and 73.7876% and 56.2664% | Relative infectivity (%) ([5]; Temsavir 50 nM): 36.2326% and 38.0343% and 31.1158% | Relative infectivity (%) ([5]; Temsavir 100 nM): 20.7287% and 13.4951% and 13.1747% | Relative infectivity (%) ([6]; Temsavir 1 nM): 89.8645% and 102.181% and 86.0322% | Relative infectivity (%) ([6]; Temsavir 5 nM): 77.4465% and 120.721% and 86.7772% | Relative infectivity (%) ([6]; Temsavir 10 nM): 69.308% and 86.3374% and 95.4665% | Relative infectivity (%) ([6]; Temsavir 50 nM): 75.3192% and 101.13% and 84.1355% | IC50 ([6]; Cf2Th-CD4/CCR5): > 50 nM | Relative infectivity (%) ([7]; Temsavir 5 nM): 1.06% and 2.62% and 1.23% | Relative infectivity (%) ([7]; Temsavir 10 nM): 1.04% and 2.29% and 1.51% | Relative infectivity (%) ([7]; Temsavir 50 nM): 0.98% and 2.22% and 1.35% | Relative infectivity (%) ([7]; Temsavir 100 nM): 1.01% and 5.2% and 2.05% | sCD4 binding (+TMR) - Fold over DMSO [8]: 1.043 and 1.054 and 0.9268 | IC50 ([9]; Cf2Th-CD4/CCR5): 1.22 nM | Relative infectivity (%) ([9]; Temsavir 0.1 nM): 85.6384% and 86.7177% and 89.7623% | Relative infectivity (%) ([9]; Temsavir 0.5 nM): 73.4943% and 55.2266% and 75.8961% | Relative infectivity (%) ([9]; Temsavir 25 nM): 4.928% and 3.547% and 2.352% and 8.953% | Relative infectivity (%) ([9]; Temsavir 100 nM): 2.171% and 1.397% and 0.7541% and 3.487% | IC50 ([10]; Cf2Th-CD4/CCR5): > 100 nM | Relative infectivity (%) ([10]; Temsavir 1 nM): 101.627% and 98.3187% and 88.9144% | Relative infectivity (%) ([10]; Temsavir 5 nM): 105.436% and 97.7235% and 87.2207% | Relative infectivity (%) ([10]; Temsavir 10 nM): 114.432% and 105.33% and 87.5665% | Relative infectivity (%) ([10]; Temsavir 50 nM): 115.171% and 108.587% and 70.9415% | Relative infectivity (%) ([10]; Temsavir 100 nM): 115.039% and 106.712% and 94.0587% | IC50 ([11]; Cf2Th-CD4/CCR5): > 100 nM | Relative infectivity (%) ([11]; Temsavir 0.1 nM): 97.5172% and 99.7027% and 99.1558% | Relative infectivity (%) ([11]; Temsavir 0.5 nM): 94.7921% and 100.166% and 82.7419% | Relative infectivity (%) ([11]; Temsavir 1 nM): 92.4628% and 111.302% and 80.2089% | Relative infectivity (%) ([11]; Temsavir 5 nM): 89.7935% and 91.5252% and 60.6402% | Relative infectivity (%) ([11]; Temsavir 25 nM): 193.211% and 192.383% and 121.78% and 152.325% | Relative infectivity (%) ([11]; Temsavir 100 nM): 67.6822% and 45.331% and 44.6004% and 67.6402% | Relative infectivity (%) ([12]; Temsavir 1 nM): 102.819% and 104.55% and 70.4862% | Relative infectivity (%) ([12]; Temsavir 10 nM): 98.1419% and 107.4% and 59.1318% | Relative infectivity (%) ([12]; Temsavir 50 nM): 106.175% and 96.9147% and 54.579% | IC50 ([12]; Cf2Th-CD4/CCR5): > 50 nM | Relative infectivity (%) ([13]; Temsavir 5 nM): 5.229% and 3.403% and 2.611% | Relative infectivity (%) ([13]; Temsavir 10 nM): 1.16% and 4.177% and 2.605% | Relative infectivity (%) ([13]; Temsavir 50 nM): 0.3118% and 0.2016% and 0.39% | IC50 ([13]; Cf2Th-CD4/CCR5): 0.7 nM | sCD4 binding (+TMR) - Fold over DMSO [14]: 1.163 and 1.208 and 0.9124 | IC50 ([15]; Cf2Th-CD4/CCR5): > 100 nM | Relative infectivity (%) ([15]; Temsavir 0.1 nM): 99.9863% and 100.025% and 95.7102% | Relative infectivity (%) ([15]; Temsavir 0.5 nM): 97.6131% and 107.833% and 88.0394% | Relative infectivity (%) ([15]; Temsavir 1 nM): 112.34% and 95.1648% and 85.749% | Relative infectivity (%) ([15]; Temsavir 5 nM): 108.208% and 99.6983% and 99.0301% | Relative infectivity (%) ([16]; Temsavir 1 nM): 42.8978% and 67.1593% and 55.5357% | Relative infectivity (%) ([16]; Temsavir 5 nM): 44.0227% and 46.691% and 23.9805% | Relative infectivity (%) ([16]; Temsavir 50 nM): 14.3245% and 26.4308% and 14.3408% | IC50 ([16]; Cf2Th-CD4/CCR5): 1.31 nM | sCD4 binding (+TMR) - Fold over DMSO [17]: 0.2258 and 0.2038 and 0.2793 | sCD4 binding (+TMR) - Fold over DMSO [18]: 0.9879 and 0.8506 and 0.9038 | sCD4 binding (+TMR) - Fold over DMSO [19]: 1.199 and 1.141 and 1.081 | sCD4 binding (+TMR) - Fold over DMSO [20]: 0.4934 and 0.673 and 0.6222 | sCD4 binding (+TMR) - Fold over DMSO [21]: 0.2273 and 0.2477 and 0.2229 | sCD4 binding (+TMR) - Fold over DMSO [22]: 0.3873 and 0.484 and 0.5948 | sCD4 binding (+TMR) - Fold over DMSO [23]: 1.042 and 0.9403 and 0.9549 | fold reduction in temsavir activity (HIV-1 Env with Ile475): ~ 90 fold | sCD4 binding (+TMR) - Fold over DMSO [24]: 0.9452 and 1.1963 and 0.9128
